Test [1] has as its target T1, FGF-R1C ECD (Homo sapiens, UniProt P11362).
T1 sequence (P11362 22-376 limits assumed): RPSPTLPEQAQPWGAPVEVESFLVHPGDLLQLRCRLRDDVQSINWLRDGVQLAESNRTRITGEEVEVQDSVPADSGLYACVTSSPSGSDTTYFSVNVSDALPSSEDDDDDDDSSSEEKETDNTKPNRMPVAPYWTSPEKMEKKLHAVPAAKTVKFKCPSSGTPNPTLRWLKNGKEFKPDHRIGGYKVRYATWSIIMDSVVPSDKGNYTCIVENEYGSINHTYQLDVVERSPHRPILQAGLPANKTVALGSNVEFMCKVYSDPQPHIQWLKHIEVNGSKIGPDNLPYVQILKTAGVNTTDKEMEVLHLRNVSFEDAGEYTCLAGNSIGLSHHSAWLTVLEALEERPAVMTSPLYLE
As to the kind of experiment: biochemical. In a few lines:
(§1)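 Biolayer interferometry with biotinylated FGF-R ECD on streptavidin biosensors in PBS pH 7.4, 0.05% Tween-20, 0.01% BSA. Multi-concentration: purified peptide dilution series fitted to a multi-point KD model.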

Test [2] deals with T2, FGF-R3C ECD (Homo sapiens, UniProt P22607).
T2 sequence (P22607 23-375 limits assumed): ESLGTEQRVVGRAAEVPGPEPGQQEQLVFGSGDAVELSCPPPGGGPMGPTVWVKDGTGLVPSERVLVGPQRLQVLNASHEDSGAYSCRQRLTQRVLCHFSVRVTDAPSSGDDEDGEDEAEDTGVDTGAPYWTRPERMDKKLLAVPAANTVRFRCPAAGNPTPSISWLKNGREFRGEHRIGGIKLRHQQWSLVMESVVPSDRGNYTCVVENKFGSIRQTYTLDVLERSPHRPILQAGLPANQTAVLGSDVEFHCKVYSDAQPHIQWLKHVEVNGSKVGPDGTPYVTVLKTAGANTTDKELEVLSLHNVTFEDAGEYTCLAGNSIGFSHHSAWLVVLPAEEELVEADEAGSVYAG
As to the kind of experiment: biochemical. The conditions noted are these: for R3C KD (nM): purified NNK library peptides, multi-concentration BLI. In a few lines:
as §1

Test [3] concerns the target T3, FGFR4/KLB (Fc-fused human FGF-R4 with beta-klotho) (Homo sapiens, UniProt P22455).
T3 sequence (P22455 22-369 limits assumed): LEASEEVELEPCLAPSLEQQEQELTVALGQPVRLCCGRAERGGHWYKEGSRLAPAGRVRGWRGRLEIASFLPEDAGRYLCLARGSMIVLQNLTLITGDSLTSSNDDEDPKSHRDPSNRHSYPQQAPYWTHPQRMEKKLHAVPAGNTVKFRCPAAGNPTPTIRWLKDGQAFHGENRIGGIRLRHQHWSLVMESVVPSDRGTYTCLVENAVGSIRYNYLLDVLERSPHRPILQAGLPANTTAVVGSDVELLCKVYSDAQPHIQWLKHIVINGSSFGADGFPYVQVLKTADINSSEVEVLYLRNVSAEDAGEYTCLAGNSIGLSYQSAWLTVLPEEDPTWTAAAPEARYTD
As to the kind of experiment: AlphaScreen FGF21 competitive binding assay. Background: Alpha assays give light when donor and acceptor beads are brought close together.

Test [4] has as its target T4, FGF-R4 ECD (Homo sapiens, UniProt P22455).
T4 construct: DNA constructs for the extracellular domain (ECD) of human FGF-; HPC4 (C); made in house; host or cells: HEK 293-6E
T4 sequence (P22455 22-369 limits assumed): T3 sequence (P22455 22-369 limits assumed)
As to the kind of experiment: multi-concentration BLI of purified peptides. The test is classed as binding. To be noted: purified NNK library peptides. In a few lines:
as §1

In test [5] the target is T5, FGFR3c/BKL (Fc-fused human FGF-R3alpha(IIIc) with beta-klotho) (Homo sapiens, UniProt P22607).
T5 sequence (P22607 23-375 limits assumed): T2 sequence (P22607 23-375 limits assumed)
As to the kind of experiment: AlphaScreen FGF21 competitive binding assay.

Test [6] concerns the target T4, FGF-R4 ECD. As to the kind of experiment: single concentration BLI of crude peptides. The test is classed as binding. To be noted: crude NNK peptides, single concentration BLI (Table S3); read-out: KD (4). In outline:
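Biotinylated FGF-R ECD on streptavidin biosensors was dipped into ~1 μM crude peptide in PBS pH7.4 with 0.05% Tween-20 and 0.01% BSA for association, then into buffer for dissociation, and followed by BLI. Fitted KD values were adjusted for peptide concentration measured by UPLC-CAD.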

Test [7] concerns the target T1, FGF-R1C ECD. As to the kind of experiment: biochemical. The class given is binding. Set-up: DNA constructs for the extracellular domain (ECD) of human FGF-; HPC4 (C); made in house; host or cells: HEK 293-6E. In a few lines:
(§2)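 BLI, streptavidin sensors loaded with biotinylated receptor ECD. Single-point: ~1 μM crude peptide, PBS pH7.4/0.05% Tween-20/0.01% BSA; association then dissociation in buffer. KD corrected for UPLC-CAD-determined concentration.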

For test [8], the target named is T2, FGF-R3C ECD. As to the kind of experiment: biochemical. Set-up: DNA constructs for the extracellular domain (ECD) of human FGF-; HPC4 (C); made in house; host or cells: HEK 293-6E. The test is classed as binding. In a few lines: as §2
In test [9] the target is T6, FGFR1c/KLB (Fc-fused human FGF-R1alpha(IIIc) with beta-klotho) (Homo sapiens, UniProt P11362).
T6 sequence (P11362 22-376 limits assumed): T1 sequence (P11362 22-376 limits assumed)
As to the kind of experiment: AlphaScreen FGF21 competitive binding assay.
Procedure: Alphascreen binding assay
The competitive binding assay was carried out according to the methods detailed in Hansen. et al using
AlphaScreen.3 All reagents and samples were prepared in assay buffer: 40mM Hepes, 140mM NaCl, 1mM
CaCl2, 0,05% Tween20, pH=7.5, 0.1% BSA. In brief, recombinant human beta-klotho (R&D Systems) was
preincubated for 60 min with the ectodomain, either Fc-fused human FGF-R1alpha(IIIc), FGF-R3alpha(IIIc)
or FGF-R4 (R&D Systems), and the mixture was added to the test peptides in OptiPlate™ (PerkinElmer).
Biotinylated FGF21 and heparin were further added to each well. AlphaScreen bead mix (1:1 mix of Protein
A acceptor beads/ streptavidin-coated donor beads, PerkinElmer) were added to each well incubated
overnight at RT in the dark, and measured on a plate reader (Envision). Assays were carried out in triplicates
with concentrations ranging from 3, 10, 30, 100, 300 ,1000 and 3000 nM of peptide. No peptide control
(media only) was used as a negative control, and unlabeled FGF21 and FGF1 as positive control.
competing with biotinylated natural FGF21 ligand.

Read-outs that look alike come from different tables or passages of the source.

Turning to `CSCC[C@H](N)C(=O)N[C@H]1CSSC[C@@H](C(=O)NCC(=O)N[C@@H](CO)C(=O)NCC(=O)N[C@@H](CO)C(=O)N[C@@H](CC(=O)O)C(=O)N[C@@H](Cc2ccc(O)cc2)C(=O)N[C@@H](CCCCN)C(=O)N[C@@H](CC(=O)O)C(=O)N[C@@H](CC(=O)O)C(=O)N[C@@H](CC(=O)O)C(=O)N[C@@H](CC(=O)O)C(=O)N[C@@H](CCCCN)C(N)=O)NC(=O)[C@H](C(C)C)NC(=O)[C@H](Cc2c[nH]c3ccccc23)NC(=O)[C@H](Cc2ccc(O)cc2)NC(=O)[C@H](CCCNC(=N)N)NC(=O)[C@H](CC(=O)O)NC(=O)[C@H](Cc2ccccc2)NC(=O)[C@H](Cc2c[nH]cn2)NC(=O)[C@H](CCCNC(=N)N)NC(=O)[C@H]([C@@H](C)O)NC(=O)[C@H](Cc2c[nH]c3ccccc23)NC(=O)[C@H](CC(C)C)NC(=O)[C@H](CC(C)C)NC1=O` [1C.2], the Kd (as a rule, the equilibrium constant for the complex coming apart) on FGF-R1C ECD [1] is 64 nM; on FGF-R3C ECD [2], greater than 1000 nM; at FGF-R4 ECD [4], greater than 1000 nM; at FGF-R4 ECD [6] it was greater than 10000 nM; on FGF-R1C ECD [7], 95 nM; at FGF-R3C ECD [8] it was greater than 10000 nM. For the same molecule, the IC50 (in general, the midpoint of a concentration-inhibition curve) is greater than 1000 nM in [3], greater than 1000 nM in test [5] and 108 nM in [9].
As for `CSCC[C@H](NC(C)=O)C(=O)N[C@H]1CSSC[C@@H](C(=O)NCC(=O)N[C@@H](CO)C(=O)NCC(=O)N[C@@H](CO)C(=O)N[C@@H](CC(=O)O)C(=O)N[C@@H](Cc2ccc(O)cc2)C(=O)N[C@@H](CCCCN)C(=O)N[C@@H](CC(=O)O)C(=O)N[C@@H](CC(=O)O)C(=O)N[C@@H](CC(=O)O)C(=O)N[C@@H](CC(=O)O)C(=O)N[C@@H](CCCCN)C(N)=O)NC(=O)[C@H](CO)NC(=O)[C@H](Cc2c[nH]cn2)NC(=O)[C@H](Cc2c[nH]c3ccccc23)NC(=O)[C@H](Cc2c[nH]cn2)NC(=O)[C@H](CCCNC(=N)N)NC(=O)[C@H]([C@@H](C)O)NC(=O)[C@H](Cc2ccc(O)cc2)NC(=O)[C@H](CC(C)C)NC(=O)[C@H](CC(N)=O)NC(=O)[C@H](Cc2c[nH]c3ccccc23)NC(=O)[C@H](CCC(N)=O)NC(=O)[C@H](CCC(N)=O)NC1=O` [3C.4], the equilibrium dissociation constant (Kd) on FGF-R1C ECD [1] is greater than 1000 nM; on FGF-R3C ECD [2], greater than 1000 nM; at FGF-R4 ECD [4], greater than 1000 nM; on FGF-R4 ECD [6] it was greater than 10000 nM; on FGF-R1C ECD [7] it was greater than 10000 nM; on FGF-R3C ECD [8] it was greater than 10000 nM. The “R3C KD (nM)” value on FGF-R3C ECD [2] was “could not detect any binding”. Moreover, the IC50 in [3] was greater than 1000 nM; in test [5], 71 nM; in [9], greater than 1000 nM. Also, the “R3C competitive IC50 (nM)” value in test [5] (purified peptides, Alphascreen vs biotinylated FGF21) is reported as “efficiently competes with FGF21”.
For `CC[C@H](C)[C@@H]1NC(=O)[C@@H](NC(=O)[C@@H](N)CCSC)CSSC[C@@H](C(=O)NCC(=O)N[C@@H](CO)C(=O)NCC(=O)N[C@@H](CO)C(=O)N[C@@H](CC(=O)O)C(=O)N[C@@H](Cc2ccc(O)cc2)C(=O)N[C@@H](CCCCN)C(=O)N[C@@H](CC(=O)O)C(=O)N[C@@H](CC(=O)O)C(=O)N[C@@H](CC(=O)O)C(=O)N[C@@H](CC(=O)O)C(=O)N[C@@H](CCCCN)C(N)=O)NC(=O)[C@@H]2CCCN2C(=O)[C@H]([C@@H](C)CC)NC(=O)[C@H](Cc2ccccc2)NC(=O)[C@@H]2CCCN2C(=O)[C@H](CCSC)NC(=O)[C@H](Cc2c[nH]cn2)NC(=O)[C@H]([C@@H](C)CC)NC(=O)[C@H](CC(=O)O)NC(=O)[C@H](Cc2ccccc2)NC1=O` [3C.2], the Kd at FGF-R1C ECD [1] was greater than 1000 nM; at FGF-R3C ECD [2], greater than 1000 nM; at FGF-R4 ECD [4] it was greater than 1000 nM; at FGF-R4 ECD [6] it was greater than 10000 nM; at FGF-R1C ECD [7], greater than 10000 nM; on FGF-R3C ECD [8], greater than 10000 nM. For the same molecule, the “R3C KD (nM)” value at FGF-R3C ECD [2] was “did not show any binding”. The IC50 in [3], in [5] and in test [9] was greater than 1000 nM each time.
For `CC[C@H](C)[C@@H]1NC(=O)[C@@H]2CCCN2C(=O)[C@H](Cc2ccccc2)NC(=O)[C@@H]2CCCN2C(=O)[C@H](Cc2c[nH]c3ccccc23)NC(=O)[C@@H]2CCCN2C(=O)[C@H](Cc2ccccc2)NC(=O)[C@H](CCCCN)NC(=O)[C@H]([C@@H](C)O)NC(=O)[C@@H](NC(=O)[C@@H](N)CCSC)CSSC[C@@H](C(=O)NCC(=O)N[C@@H](CO)C(=O)NCC(=O)N[C@@H](CO)C(=O)N[C@@H](CC(=O)O)C(=O)N[C@@H](Cc2ccc(O)cc2)C(=O)N[C@@H](CCCCN)C(=O)N[C@@H](CC(=O)O)C(=O)N[C@@H](CC(=O)O)C(=O)N[C@@H](CC(=O)O)C(=O)N[C@@H](CC(=O)O)C(=O)N[C@@H](CCCCN)C(N)=O)NC(=O)[C@H](C)NC(=O)[C@H](Cc2c[nH]c3ccccc23)NC(=O)[C@H](Cc2ccccc2)NC1=O` [1C.8], the Kd was 323 nM at FGF-R1C ECD [1]; greater than 1000 nM at FGF-R3C ECD [2]; 464 nM at FGF-R4 ECD [4]; 70 nM at FGF-R4 ECD [6]; 155 nM at FGF-R1C ECD [7]; 47 nM at FGF-R3C ECD [8]. For the same molecule, the IC50 in [3] is 431 nM; in test [5] it was greater than 1000 nM; in test [9], 112 nM.
As for `CC[C@H](C)[C@@H]1NC(=O)[C@@H](NC(=O)[C@H](CCSC)NC(C)=O)CSSC[C@@H](C(=O)NCC(=O)N[C@@H](CO)C(=O)NCC(=O)N[C@@H](CO)C(=O)N[C@@H](CC(=O)O)C(=O)N[C@@H](Cc2ccc(O)cc2)C(=O)N[C@@H](CCCCN)C(=O)N[C@@H](CC(=O)O)C(=O)N[C@@H](CC(=O)O)C(=O)N[C@@H](CC(=O)O)C(=O)N[C@@H](CC(=O)O)C(=O)N[C@@H](CCCCN)C(N)=O)NC(=O)[C@H](CCC(=O)O)NC(=O)[C@H](C(C)C)NC(=O)[C@H](Cc2c[nH]c3ccccc23)NC(=O)[C@H](Cc2ccccc2)NC(=O)[C@H](CC(=O)O)NC(=O)[C@H](CO)NC(=O)[C@H](CC(C)C)NC(=O)[C@H](CCCNC(=N)N)NC(=O)[C@H](Cc2ccc(O)cc2)NC1=O` [1C.7], the Kd at FGF-R1C ECD [1] is greater than 1000 nM; at FGF-R3C ECD [2], greater than 1000 nM; on FGF-R4 ECD [4], greater than 1000 nM; at FGF-R4 ECD [6] it was 45 nM; on FGF-R1C ECD [7], 47 nM; at FGF-R3C ECD [8], 281 nM. In addition, the IC50 in test [3] was 406 nM; in test [5], 631 nM; in test [9] it was 473 nM.

B1: FGF21: unlabelled FGF21, natural ligand used as positive control (protein, UniProt Q9NSA1 29-209, looked up)
Fibroblast growth factor 21: HPIPDSSPLLQFGGQVRQRYLYTDDAQQTEAHLEIREDGTVGGAADQSPESLLQLKALKPGVIQILGVKTSRFLCQRPDGALYGSLHFDPEACSFRELLLEDGYNVYQSEAHGLPLHLPGNKSPHRDPAPRGPARFLPLPGLPPALPEPPGILAPQPPDVGSSDPLSMVGPSQGRSPSYAS
For B1, the IC50 in test [3] (read-out: IC50 values for controls (FGF-R4), positive controls, Alphascreen vs biotinylated FGF21) amounted to 674 nM; in [5] (read-out: IC50 values for controls (FGF-R3C), positive controls, Alphascreen vs biotinylated FGF21), 20 nM; in [9] (read-out: IC50 values for controls (FGF-R1C), positive controls, Alphascreen vs biotinylated FGF21), 23 nM.

The values are drawn from article PMC10763615, “Identification and engineering of potent cyclic peptides with selective or promiscuous binding through biochemical profiling and bioinformatic data analysis” (RSC Chemical Biology, 2023).
